US20190337924A1, “SUBSTITUTED HYDANTOIN AND THIOHYDANTOIN DERIVATIVES AS ANDROGEN RECEPTOR ANTAGONISTS” (Janssen Pharmaceutica NV, priority 2016, published 2019)
Counter-ions that a name gives are not always drawn. Like-named read-outs stand apart in the source and are kept apart here.

Assays:
[1] = target: T1, F876L mutant Androgen Receptor (AR-F876L) (Homo sapiens, UniProt P10275, F877L); assay: AR reporter assay, LNCaP-AR-F876L ANT (antagonist mode); assay type: cell-based; settings: for Emax: read-out: LNCaP-AR-F876L ANT MAX % Inh
T1 construct: expressed in transfected cells; host or cells: LNCaP
T1 sequence (P10275 1-920 F877L): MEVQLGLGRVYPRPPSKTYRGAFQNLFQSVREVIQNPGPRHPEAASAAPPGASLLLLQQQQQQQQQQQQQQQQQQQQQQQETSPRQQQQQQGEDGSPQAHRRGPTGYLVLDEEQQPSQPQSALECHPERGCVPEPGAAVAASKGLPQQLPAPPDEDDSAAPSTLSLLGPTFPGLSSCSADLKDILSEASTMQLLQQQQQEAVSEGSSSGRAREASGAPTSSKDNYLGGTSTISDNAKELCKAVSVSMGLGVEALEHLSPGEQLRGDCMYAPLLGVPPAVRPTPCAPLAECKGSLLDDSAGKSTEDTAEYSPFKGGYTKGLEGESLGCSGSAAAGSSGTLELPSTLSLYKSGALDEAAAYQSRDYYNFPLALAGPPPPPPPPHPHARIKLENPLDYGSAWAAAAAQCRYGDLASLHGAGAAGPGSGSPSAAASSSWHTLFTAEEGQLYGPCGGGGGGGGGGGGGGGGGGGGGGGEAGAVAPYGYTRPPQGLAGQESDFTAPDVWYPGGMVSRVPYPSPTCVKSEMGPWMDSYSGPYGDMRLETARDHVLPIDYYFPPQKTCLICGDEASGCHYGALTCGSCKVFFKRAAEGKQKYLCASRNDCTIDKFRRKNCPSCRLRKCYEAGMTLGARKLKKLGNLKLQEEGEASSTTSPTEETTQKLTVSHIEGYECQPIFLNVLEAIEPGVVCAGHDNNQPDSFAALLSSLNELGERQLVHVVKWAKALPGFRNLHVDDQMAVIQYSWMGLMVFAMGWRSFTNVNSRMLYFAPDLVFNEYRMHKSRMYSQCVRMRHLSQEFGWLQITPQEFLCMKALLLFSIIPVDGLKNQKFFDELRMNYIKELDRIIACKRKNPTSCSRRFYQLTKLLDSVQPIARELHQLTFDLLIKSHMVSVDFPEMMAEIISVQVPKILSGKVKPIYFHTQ
Excerpt: (§1) LNCaP AR (cs) and LNCaP F876L luciferase cell lines were generated by transduction of each cell line (description of cell line generation Joseph J D, Lu N, Qian J, Sensintaffar J, Shao G, Brigham D, Moon M, Maneval E C, Chen I, Darimont B, Hager J H. A clinically relevant androgen receptor mutation confers resistance to second-generation antiandrogens enzalutamide and ARN-509. Cancer Discov 2013; 3:1020-1029) with an Androgen Response Element Firefly Luciferase lentiviral construct at an MOI (multiplicity of infection) of 50 following the manufacturer's instructions (Qiagen). A stable pooled-population cell line was generated using puromycin (Life Technologies) selection at 1:10,000 v/v. The protocol below was used for both cell lines and for testing of the compounds of Formula (I) of the present invention.
(§2) LNCaP cells were grown to about 80% confluence, media removed and cells rinsed in Hank's balanced salt solution prior to separation from the plate with 0.05% Trypsin EDTA. Cells were lifted and trypsin negated in complete CSS (charcoal stripped serum) culture media. CSS was maintained on cells for 24 h prior to assay, at which time 5,000 cells/[…] were seeded in Greiner 384 well White/White Tissue Culture Treated Plates and incubated for a further 1-2 hours at 37° C., 5% CO2, prior to addition of 10 μL of 4× Test Compounds (compounds described herein) or Assay Controls (all diluted in complete media containing 10% css). A further 10 μL of 4× R-1881 Agonist Challenge (antagonist assay) or Buffer (agonist assay) was then added (all diluted in complete media containing 10% css). Agonist challenge was at 400 pM for WT assay and 600 pM for F876L assay. Plates containing cells and compounds herein were incubated for a further 20-24 hours at 37° C., 5% CO2 before addition of 40 μL/well of Steady-Glo Luciferase Assay System Reagent (Promega#E2520). After 1 h, plates were read for luminescence on a BMG Pherastar.
Agonist challenge: R-1881 (Metribolone)—Agonist
Antagonist control (low control): 5-(5-(4-((1-Methylpiperidin-4-yl)oxy)phenyl)-8-oxo-6-thioxo-5,7-diazaspiro[3.4]octan-7-yl)-3-(trifluoromethyl)picolinonitrile (WO 2011/103202, EXAMPLE 19, Compound 129, CAS #1332390-06-3).
(1−(Sample RLU−Ave Low Control RLU[10 μM Antagonist Control])/(Ave High Control RLU [400 pM R-1881]−Ave Low Control RLU[10 μM Antagonist Control]))*100.
(§3) EC/IC50 calculations were achieved utilizing calculated RLU data and data fitting macros. Data were fit using least-squares methods to the following formula: […]
(§4) As used herein: • pIC50 is defined as −Log10(IC50 expressed in [Molar]). • pEC50 is defined as −Log10(EC50 expressed in [Molar]). • MAX % Inh is defined as the maximum % inhibition of R1881 control response observed for a compound over the tested concentration range. • MAX % Stim is defined as the maximum % stimulation (agonist response) observed for a compound over the tested concentration range. • LNCaP-AR-wt ANT refers to the reporter assay using LNCaP cells stably transfected with the Androgen Response Element Firefly Luciferase lentiviral construct and wild-type Androgen Receptor (AR-wt) in Antagonist mode. • LNCaP-AR-wt AG refers to the reporter assay using LNCaP cells stably transfected with the Androgen Response Element Firefly Luciferase lentiviral construct and wild-type Androgen Receptor (AR-wt) in Agonist mode. • LNCaP-AR-F876L ANT refers to the reporter assay using LNCaP cells stably transfected with the Androgen Response Element Firefly Luciferase lentiviral construct and F876L mutant Androgen Receptor (AR-F876L) in Antagonist mode. • LNCaP-AR-F876L AG refers to the reporter assay using LNCaP cells stably transfected with the Androgen Response Element Firefly Luciferase lentiviral construct and F876L mutant Androgen Receptor (AR-F876L) in Agonist mode.

[2] = target: T1, F876L mutant Androgen Receptor (AR-F876L); assay: AR reporter assay, LNCaP-AR-F876L AG (agonist mode); assay type: cell-based; settings: for Emax: read-out: LNCaP-AR-F876L AG MAX % Stim
Excerpt: as §1, §2
((Sample RLU−Ave Low Control RLU[DMSO/Buffer])/(Ave High Control RLU [1 μM R-1881]—Ave Low Control RLU[DMSO/Buffer]))*100.
as §3, §4

[3] = antagonist mode, 600 pM R-1881 challenge, luciferase reporter, -Log10(IC50 in Molar), read-out: LNCaP-AR-F876L ANT pIC50 (converted)
[4] = agonist mode (buffer, no R-1881), -Log10(EC50 in Molar), read-out: LNCaP-AR-F876L AG pEC50 (converted)

Compound	IC50 [1, 3] [nM]	Emax [1] [%]	EC50 [2] [µM]	Emax [2] [%]	EC50 [2, 4] [µM]	IC50 [1] [nM]
N#Cc1ccc(N2C(=O)C3(CCC3)N(c3cnc(OC4CCNCC4)nc3)C2=S)cc1C(F)(F)F [Compound 15, 4-(8-Oxo-5-(2-(piperidin-4-yloxy)pyrimidin-5-yl)-6-thioxo-5,7-diazaspiro[3.4]octan-7-yl)-2-(trifluoromethyl)benzonitrile]	107	101	> 15.1	-0.1	–	–
CN1CCC(Oc2ncc(N3C(=S)N(c4ccc(C#N)c(C(F)(F)F)c4)C(=O)C34CCC4)cn2)CC1 [Compound 16, 4-(5-(2-((1-Methylpiperidin-4-yl)oxy)pyrimidin-5-yl)-8-oxo-6-thioxo-5,7-diazaspiro[3.4]octan-7-yl)-2-(trifluoromethyl)benzonitrile]	166	101	> 15.1	0.1	–	–
Cc1cc(N2C(=O)C3(CCC3)N(c3ccc(OC4CCN(C)CC4)cc3)C2=S)ccc1C#N [Compound 17, 2-Methyl-4-(5-(4-((1-methylpiperidin-4-yl)oxy)phenyl)-8-oxo-6-thioxo-5,7-diazaspiro[3.4]octan-7-yl)benzonitrile]	129	101	–	0.2	> 15.1	–
Cc1cc(N2C(=O)C3(CCC3)N(c3ccc(OC4CCN(C)CC4)nc3)C2=S)ccc1C#N [Compound 18, 2-Methyl-4-(5-(6-((1-methylpiperidin-4-yl)oxy)pyridin-3-yl)-8-oxo-6-thioxo-5,7-diazaspiro[3.4]octan-7-yl)benzonitrile]	282	99.8	–	2.6	> 15.1	–
COc1cc(N2C(=O)C3(CCC3)N(c3ccc(OC4CCN(C)CC4)cc3)C2=S)ccc1C#N [Compound 19, 2-Methoxy-4-(5-(4-((1-methylpiperidin-4-yl)oxy)phenyl)-8-oxo-6-thioxo-5,7-diazaspiro[3.4]octan-7-yl)benzonitrile]	–	101	> 15.1	0.3	–	83.2
COc1cc(N2C(=O)C3(CCC3)N(c3ccc(OC4CCN(C)CC4)nc3)C2=S)ccc1C#N [Compound 20, 2-Methoxy-4-(5-(6-((1-methylpiperidin-4-yl)oxy)pyridin-3-yl)-8-oxo-6-thioxo-5,7-diazaspiro[3.4]octan-7-yl)benzonitrile]	145	100	> 15.1	0.3	–	–
N#Cc1ccc(N2C(=O)C3(CCC3)N(c3ccc(OC4CCNCC4)cc3)C2=S)cc1Cl [Compound 21, 2-Chloro-4-(8-oxo-5-(4-(piperidin-4-yloxy)phenyl)-6-thioxo-5,7-diazaspiro[3.4]octan-7-yl)benzonitrile]	200	104	> 15.1	0.2	–	–
CN1CCC(Oc2ccc(N3C(=S)N(c4ccc(C#N)c(Cl)c4)C(=O)C34CCC4)cc2)CC1 [Compound 22, 2-Chloro-4-(5-(4-((1-methylpiperidin-4-yl)oxy)phenyl)-8-oxo-6-thioxo-5,7-diazaspiro[3.4]octan-7-yl)benzonitrile]	–	99.5	> 15.1	0	–	112
N#Cc1ccc(N2C(=O)C3(CCC3)N(c3ccc(OC4CCNCC4)nc3)C2=S)cc1Cl [Compound 23, 2-Chloro-4-(8-oxo-5-(6-(piperidin-4-yloxy)pyridin-3-yl)-6-thioxo-5,7-diazaspiro[3.4]octan-7-yl)benzonitrile hydrochloride]	–	103	> 15.1	0.3	–	50.1
CN1CCC(Oc2ccc(N3C(=S)N(c4ccc(C#N)c(Cl)c4)C(=O)C34CCC4)cn2)CC1 [Compound 24, 2-Chloro-4-(5-(6-((1-methylpiperidin-4-yl)oxy)pyridin-3-yl)-8-oxo-6-thioxo-5,7-diazaspiro[3.4]octan-7-yl)benzonitrile hydrochloride]	–	99.8	> 15.1	0.1	–	77.6
